Read-outs that look alike come from different tables or passages of the source. Each block holds one compound with its values, some of them ahead of it.
Biological target: T1, clostridial glutamate dehydrogenase (GDH) ([Clostridium] symbiosum, UniProt P24295)
T1 construct: no tag mentioned
T1 sequence (P24295 2-450): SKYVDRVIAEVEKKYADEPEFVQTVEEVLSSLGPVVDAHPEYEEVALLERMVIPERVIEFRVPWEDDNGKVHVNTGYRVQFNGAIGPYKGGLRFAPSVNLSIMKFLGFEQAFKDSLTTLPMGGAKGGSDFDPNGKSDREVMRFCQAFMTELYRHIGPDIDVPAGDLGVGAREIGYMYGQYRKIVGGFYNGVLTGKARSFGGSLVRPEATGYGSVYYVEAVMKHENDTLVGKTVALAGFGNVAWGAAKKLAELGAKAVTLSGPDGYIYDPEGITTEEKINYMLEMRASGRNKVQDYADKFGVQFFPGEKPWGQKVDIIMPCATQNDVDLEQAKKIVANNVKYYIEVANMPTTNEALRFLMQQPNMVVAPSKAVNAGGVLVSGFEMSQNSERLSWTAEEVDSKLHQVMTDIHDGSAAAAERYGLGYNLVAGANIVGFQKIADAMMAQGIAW
Experiment: protection against DTNB inactivation
Format: biochemical
Details: 0.1 M potassium phosphate, pH 7.0, 25°C, 200 μM DTNB, competitive with DTNB at coenzyme site, Kd corrected for DTNB
From the text: protection against DTNB inactivation on clostridial glutamate dehydrogenase (GDH)

- Kd (read-out: K dNADH): 24 ± 1 µM
SMILES: NC(=O)C1=CN([C@@H]2O[C@H](COP(=O)(O)OP(=O)(O)OC[C@H]3O[C@@H](n4cnc5c(N)ncnc54)[C@H](O)[C@@H]3O)[C@@H](O)[C@H]2O)C=CC1 [NADH]

- Kd (read-out: K dNADPH): 23 ± 1 µM
SMILES: NC(=O)C1=CN([C@@H]2O[C@H](COP(=O)(O)OP(=O)(O)OC[C@H]3O[C@@H](n4cnc5c(N)ncnc54)[C@H](OP(=O)(O)O)[C@@H]3O)[C@@H](O)[C@H]2O)C=CC1 [NADPH]

- Kd (read-out: K dNAD+): 335 ± 17 µM
SMILES: NC(=O)c1ccc[n+]([C@@H]2O[C@H](COP(=O)(O)OP(=O)(O)OC[C@H]3O[C@@H](n4cnc5c(N)ncnc54)[C@H](O)[C@@H]3O)[C@@H](O)[C@H]2O)c1 [NAD^+]

— article PMC2962915, “The –SH Protection Method for Determining Accurate Kd Values for Enzyme-Coenzyme Complexes of NAD^+-Dependent Glutamate Dehydrogenase and Engineered Mutants: Evidence for Nonproductive NADPH Complexes” (Enzyme Research, 2010)
